Reference: paper PMC12865225 (Clinical and Translational Science, 2026)
Marks after values point to notes of the source that are not given here.

Target: T1, OAT3 (Homo sapiens, UniProt Q8TCC7)
T1 sequence (Q8TCC7 1-542): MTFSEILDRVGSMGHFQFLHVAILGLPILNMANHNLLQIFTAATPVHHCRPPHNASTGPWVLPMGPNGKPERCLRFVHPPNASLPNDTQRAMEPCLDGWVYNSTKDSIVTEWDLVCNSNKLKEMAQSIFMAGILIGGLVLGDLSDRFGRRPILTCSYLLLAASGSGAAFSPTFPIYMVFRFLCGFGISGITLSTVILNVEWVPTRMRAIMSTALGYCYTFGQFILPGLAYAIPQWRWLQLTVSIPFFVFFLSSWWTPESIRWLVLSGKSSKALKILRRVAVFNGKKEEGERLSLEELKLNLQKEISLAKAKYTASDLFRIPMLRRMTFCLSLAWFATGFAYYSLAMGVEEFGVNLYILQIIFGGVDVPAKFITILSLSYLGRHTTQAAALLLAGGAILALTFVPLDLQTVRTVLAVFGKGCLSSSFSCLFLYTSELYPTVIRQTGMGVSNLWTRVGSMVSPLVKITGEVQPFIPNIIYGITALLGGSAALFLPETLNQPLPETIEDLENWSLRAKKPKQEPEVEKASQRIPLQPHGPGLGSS
Test: OAT3 inhibition, fluorescein uptake into HEK293 cells
Assay type: cell-based
Set-up: expressed in transfected cells; host or cells: HEK293 (recombinant baculovirus-mediated transduction)
Details: R = I max,u/IC50, FDA cut-off ≥ 0.1
Method: The human transporters OATP1B1, OATP1B3, OATP2B1, and OAT1‐OAT4 and a negative control protein (enhanced yellow fluorescent protein, eYFP) were transiently expressed in human embryonic kidney 293 (HEK293) cells by recombinant baculovirus‐mediated transduction. Baculoviruses carrying human genes for the transporters were prepared as reported previously. HEK293 cells were cultured in DMEM containing 10% fetal bovine serum at 37°C and 5% CO2 and passaged two to three times per week. For the transport studies, 0.05 × 10^6 cells for 48‐well plates (OATPs) or 0.06 × 10^6 cells for 24‐well plates (OATs) were seeded onto cell‐culture treated well plates coated with poly‐D‐lysine. […]
In the OATP inhibition assays, inhibitors in warm TP‐buffer were directly applied to cells after media removal, followed by a 30‐min preincubation step in the presence of inhibitors. […] OAT1 and OAT3 cells were lysed with 200 μL of 1 M sodium hydroxide for 10 min, and 150 μL of these samples were transferred to a black well plate for fluorescein quantification. […]
For the inhibition data analysis, the average of measured concentrations in the control cells was subtracted from the average of measured concentrations in transporter‐expressing cells for each inhibitor concentration and then normalized to the vehicle sample that represents 100% transport activity. […]

Calculated R-value OAT3 | Compound
0.07 ^c | Cc1onc(-c2c(Cl)cccc2Cl)c1C(=O)N[C@@H]1C(=O)N2[C@@H]1SC(C)(C)[C@@H]2C(=O)O [Dicloxacillin]
0.1 ^c | Cc1onc(-c2c(F)cccc2Cl)c1C(=O)N[C@@H]1C(=O)N2[C@@H]1SC(C)(C)[C@@H]2C(=O)O [Flucloxacillin]
